According to patent US20250059610A1, “METHODS OF TREATING TUMOR” (priority 2017, published 2025):

How the values were obtained:
[1] = system: NSCLC with ≥50% PD-L1 expression; conditions: first-line; cited from earlier work
[2] = system: recurrent small cell lung cancer (SCLC); test: Clinical trial of nivolumab alone or with ipilimumab in SCLC, exploratory TMB analysis; assay type: in vivo, human
From the text: Subjects were selects who had previously been diagnosed with SCLC, and who had previously received at least one prior platinum-containing regimen (FIG. 23).
The primary objective was to measure the objective response rate (ORR) by per RECIST v1.1. Secondary objectives included monitoring safety, overall survival (OS), progression free survival (PFS), and duration of response (DOR). Prespecified exploratory objectives included biomarker analysis and health status using the EQ-5D instrument.
TMB was determined by whole exome sequencing, using an Illumina HiSeq 2500 using 2×100-bp paired-end reads, and calculated as the total number of nonsynonymous missense mutations in the tumor. For exploratory analyses, patients were divided into 3 subgroups based on TMB tertile.

pembrolizumab
ORR [1]: 45% | median PFS [1]: 10.3 months

ipilimumab: fully human, IgG1 monoclonal antibody that blocks the binding of CTLA-4 to its B7 ligands
ORR ([2]; high TMB): ~46.2% | ORR ([2]; low TMB): ~22.2% | ORR ([2]; medium TMB): ~16.0%
